Assays:
murine NK cells = test: PDGFRβ expression in murine splenic NK cells, flow cytometry; format: cell-based, mouse
Procedure: FIGS. 7A-7F. […] Data shown are representative histograms and mean fluorescence intensity (MFI) of PDGFRα. […] Expression levels of PDGFRβ were examined by flow cytometry (n=6). […] Data shown are the percentages of PDGFRβ^+ NK cells among total NK cells (n=5). […] Data shown are representative histograms with MFI of PDGFRβ expression. (F) Expression levels of PDGFRβ on NK cells from IL-15 transgenic (Tg) mice were determined by flow cytometry. Data shown are representative histograms. Data represent three independent experiments.
Mouse NK cells were isolated from the spleen of C57BL/6J or IL-15 transgenic mice, using the EasySep Mouse NK Cell Isolation Kit ([…] Technologies) as previously described (11).
Cells were stained with the indicated cell-surface markers and/or fixed/permeabilized using a Fixation/Permeabilization Kit (eBioscience). For intracellular staining of IFN-γ and PDGF-D, 5 μg/ml Brefeldin A (BioLegend) was added for 4 h before cell harvest. Intracellular staining of Ki67 was performed by fixing and permeabilizing with the Foxp3/Transcription Factor Staining Kit (eBioscience). […] Data were analyzed using NovoExpress software (Agilent Technologies).

PDGFRB = PDGFRB mRNA levels by qPCR; format: cell-based, human; details: primary NK cells, IL-15 10 ng/ml
Procedure: (§1) FIGS. 2A-2I. IL-15-induced PDGFRβ expression is mediated by PI3K/AKT signaling. (A-B) Primary NK cells were treated with IL-15 (10 ng/ml) for the indicated times. mRNA levels of PDGFRB at different time points (A) (n=3) or at 1 h (B) (n=10) were examined by qPCR. (C-D) Primary NK cells were pretreated with actinomycin D (ActD, 5., g/ml) (C) or cycloheximide (CHX, 20 μg/ml) (D) for 1 h, washed twice with RPMI-1640, and then treated with IL-15 (10 ng/ml) for 24 h. DMSO was used as a control. Expression levels of PDGFRβ were examined by flow cytometry (n=5). Data shown are representative histograms and percentage of inhibition with the equation: % inhibition=100×[1−(DMSO-inhibitor)/DMSO]. […] (G-I) Binding of p65 to the PDGFRB promoter in IL-15-treated NK cells (G) or resting NK cells (H) as determined by ChIP-qPCR or PCR (I) (n=3). […]
RNA was isolated using an RNeasy Mini Kit (QIAGEN) and reversely transcribed to cDNA with a PrimeScript RT Reagent Kit with gDNA Eraser (Takara Bio) according to the manufacturer's protocol. mRNA expression levels were analyzed using SYBR Green qPCR Master Mix and a QuantStudio 12K Flex Real-Time PCR System (both from Thermo Fisher Scientific). […]

PDGF-D promoter = test: ChIP-qPCR, binding of p65 to the PDGF-D promoter; format: cell-based, human; details: IL-15-stimulated NK cells (1 h); not in resting NK cells
Procedure: FIGS. 5A-5J. IL-15 induces PDGF-D expression in an autocrine manner. (A) mRNA levels of PDGFA, PDGFB, PDGFC, and PDGF-D in T cells, B cells, and NK cells were analyzed using the BioGPS online tool. (B) mRNA levels of PDGFA, PDGFB, PDGFC, and PDGF-D in T cells, B cells, and NK cells were examined by qPCR (n=10). (C) Primary NK cells were treated with IL-15 (10 ng/ml) for the indicated times. mRNA levels of PDGF-D were examined by qPCR (n=3). (D-E) Representative dot plots and percentages of PDGF-D levels in NK cells after IL-15 (50 ng/ml) treatment for 24 h. Resting NK cells were used as control (n=5). […] (I-J) Binding of p65 to the PDGF-D promoter in IL-15 treated (I) or resting NK cells (J) as determined by ChIP-qPCR (n=3). Data represent three independent experiments. Data shown are means±SD. NS, not significant, *P<0.05, **P<0.01, ***P<0.001, and ****P<0.0001.
Primary NK cells were treated with IL-15 for 1 h. The cells were cross-linked in 1% formaldehyde and quenched with glycine buffer. ChIP assays were carried out using a Pierce Magnetic ChIP Kit (Cat No.26157, Thermo Scientific) according to the manufacturer's instructions. Digested chromatin was incubated overnight with a p65 ChIP-grade antibody (#8242, Cell Signaling Technology) or IgG control antibody (#3900, Cell Signaling Technology). The enriched chromatin was analyzed by qPCR using the following primers: […]

PDGFRB promoter = test: ChIP-qPCR, binding of p65 to the PDGFRB promoter; format: cell-based, human; details: IL-15-stimulated NK cells (1 h); not in resting NK cells
Procedure: as §1, with “inhibition=[…]. (E) Primary NK cells were pretreated with wortmannin (1 μM), afuresertib (10 μM), TPCA-1 (1 μM), rapamycin (10 μM), torin1 (10 μM), decernotinib (10 μM), C118-9 (10 μM), STAT5-IN-1 (10 μM), AZD6244 (10 μM), or CI-1040 (10 μM) for 1 h, washed twice with RPMI 1640, and then treated with IL-15 (10 ng/ml) for 24 h. DMSO was used as control. Data shown are % of inhibition (n=5). The mean value of the inhibitory rate is shown.” for “inhibition=100×[1−(DMSO-inhibitor)/DMSO].”
Primary NK cells were treated with IL-15 for 1 h. […] The enriched chromatin was analyzed by qPCR using the following primers: […]

BCL-2, BCL-XL, and MCL-1 = test: Immunoblot of BCL-2, BCL-XL and MCL-1 in NK cells; format: cell-based, human; details: 48 h

p65 enrichment at the PDGF-D promoter versus normal IgG control (PDGF-D promoter)	p65 associated with the PDGFRB promoter versus normal IgG control (PDGFRB promoter)	Substance	PDGFRβ on NK cells from IL-15 transgenic mice (murine NK cells; long-term IL-15 stimulation, IL-15 transgenic mice)	PDGFRβ expression in murine NK cells (murine NK cells; splenic NK cells of C57BL/6 mice, mouse cytokines 10 ng/ml, 24 h)	mRNA levels of the PDGFRB gene (PDGFRB)	expression levels of BCL-2, BCL-XL, and MCL-1 (BCL-2, BCL-XL, and MCL-1; IL-15 10 ng/ml and PDGF-D 50 ng/ml)	receptor dependence of the BCL-2, BCL-XL, and MCL-1 increase (BCL-2, BCL-XL, and MCL-1; with anti-NKp44 or anti-PDGFRβ)
significantly enriched	significantly higher levels	IL-15: recombinant human IL-15 (200-15); recombinant murine IL-15 in the mouse NK cell test	could not detect any PDGFRβ	did not express PDGFRβ	increased significantly		
		PDGF-D: recombinant human PDGF-DD (1159-SB-025), R&D Systems				increased the expression levels	NKp44-independent but PDGFRβ-dependent

From patent US20250017964A1, “ENGINEERING OR INDUCING PDGF AND/OR PDGFR SIGNALING TO ENHANCE NK CELL THERAPY” (City of Hope, priority 2021, published 2025)
